# Experimental data taken from patent US20040038233A1, “Diagnosis kit for mycobacterium species indentification and drug-resistance detection and manufacturing method thereof” (priority 2000, published 2004).
# Read-outs that look alike come from different tables or passages of the source.
# Columns and labels:
# [1] = tested on: Mycobacterium tuberculosis; format: cell-based
# [2] = tested on: Mycobacterium tuberculosis rpoB gene mutants; parameters: key to DRUG-SUSCEPTIBILITY: R represents resistance; S represents susceptibility; conditions: cited from earlier work
Compound,drug-susceptibility test result [1],DRUG-SUSCEPTIBILITY ([2]; 509 MUTANT (probe Mt509)),DRUG-SUSCEPTIBILITY ([2]; 509 WILD TYPE (probe Wt509)),DRUG-SUSCEPTIBILITY ([2]; 524 MUTANT (probe Mt524)),DRUG-SUSCEPTIBILITY ([2]; 524 WILD TYPE (probe Wt524)),DRUG-SUSCEPTIBILITY ([2]; 533 MUTANT (probe Mt533)),DRUG-SUSCEPTIBILITY ([2]; 533 WILD TYPE (probe Wt533)),"drug-susceptibility of codon 526 mutants ([2]; codon 526 His>Gln, Gly, Asn, Ala, or Cys)","drug-susceptibility of codon 526 mutants ([2]; codon 526 His>Tyr, Pro, Arg, or Asp)"
CO[C@H]1/C=C/O[C@@]2(C)Oc3c(C)c(O)c4c(O)c(c(/C=N/N5CCN(C)CC5)c(O)c4c3C2=O)NC(=O)/C(C)=C\C=C\[C@H](C)[C@H](O)[C@@H](C)[C@@H](O)[C@@H](C)[C@H](OC(C)=O)[C@@H]1C [rifampin],resistance,R,"RFP-S, RBU-S","RFP-R, RBU-R","RFP-S, RBU-S","RFP-R, RBU-R","RFP-S, RBU-S",,
"CO[C@H]1/C=C/O[C@@]2(C)Oc3c(C)c(O)c4c(c3C2=O)C2=NC3(CCN(CC(C)C)CC3)NC2=C(NC(=O)/C(C)=C\C=C\[C@H](C)[C@H](O)[C@@H](C)[C@@H](O)[C@@H](C)[C@H](OC(C)=O)[C@@H]1C)C4=O [rifabutin, Rifabutin]",,S,"RFP-S, RBU-S","RFP-R, RBU-R","RFP-S, RBU-S","RFP-R, RBU-R","RFP-S, RBU-S",susceptibility,resistance
